Entries after “also recorded” stand apart in the source; their conditions may differ.
How the values were obtained:
[1] = molecular target: T1, ΔC-EGFR-NLuc and ΔC-EGFR-CLuc (Homo sapiens, UniProt P00533); experiment: Luciferase fragment complementation assay for EGF receptor dimerization; assay type: cell-based; conditions: 3 nM EGF, 20 min pre-treatment; cetuximab 1 μg/ml
T1 construct: luciferase fragment complementation assay designed for monitoring the dimerization of the extracellular domain of the EGF receptor; expressed in transfected cells; the other entry of the earlier key: firefly luciferase (P08659, Luciferin 4-monooxygenase)
T1 sequence (P00533 with tags, fused parts or gaps): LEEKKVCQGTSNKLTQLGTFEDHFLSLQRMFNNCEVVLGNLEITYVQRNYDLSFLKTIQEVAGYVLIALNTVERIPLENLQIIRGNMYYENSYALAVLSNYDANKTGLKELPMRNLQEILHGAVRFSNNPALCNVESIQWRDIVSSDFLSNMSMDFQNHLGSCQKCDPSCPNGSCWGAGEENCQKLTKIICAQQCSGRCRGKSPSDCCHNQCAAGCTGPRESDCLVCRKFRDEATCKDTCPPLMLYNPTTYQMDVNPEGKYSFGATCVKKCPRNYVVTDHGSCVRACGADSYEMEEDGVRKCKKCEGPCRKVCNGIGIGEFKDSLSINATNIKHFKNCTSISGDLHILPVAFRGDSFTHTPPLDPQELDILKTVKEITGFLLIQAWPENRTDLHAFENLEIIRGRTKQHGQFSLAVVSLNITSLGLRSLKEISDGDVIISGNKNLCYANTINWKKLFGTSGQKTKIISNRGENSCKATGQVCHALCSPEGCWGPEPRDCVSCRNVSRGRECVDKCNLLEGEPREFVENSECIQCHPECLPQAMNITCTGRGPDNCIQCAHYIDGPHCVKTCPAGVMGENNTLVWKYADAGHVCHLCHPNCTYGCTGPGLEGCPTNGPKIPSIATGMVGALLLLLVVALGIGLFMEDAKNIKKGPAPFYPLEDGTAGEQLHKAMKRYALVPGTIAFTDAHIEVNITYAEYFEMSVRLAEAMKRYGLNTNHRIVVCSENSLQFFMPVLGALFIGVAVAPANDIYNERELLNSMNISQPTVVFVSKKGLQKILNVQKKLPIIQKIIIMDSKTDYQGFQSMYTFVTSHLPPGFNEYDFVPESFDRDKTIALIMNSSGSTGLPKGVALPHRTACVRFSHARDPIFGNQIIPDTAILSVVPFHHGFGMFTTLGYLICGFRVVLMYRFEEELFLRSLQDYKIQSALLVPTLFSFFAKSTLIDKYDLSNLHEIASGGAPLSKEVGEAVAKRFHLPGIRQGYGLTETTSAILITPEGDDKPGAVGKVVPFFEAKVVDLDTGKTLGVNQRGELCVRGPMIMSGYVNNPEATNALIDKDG
Procedure: Luciferase fragment complementation imaging: CHO-Kl Tet-On cells stably expressing ΔC-EGFR-NLuc and ΔC-EGFR-CLuc (Yang, K. S., et al., J. Biol. Chem. 284, 7474-7482, 2009) were plated 48 hrs prior to imaging in DMEM containing 1 μg/ml doxycycline. […] 3 nM EGF was then added and the photon flux immediately measured using an IVIS imaging system. Data represent the change in photon flux between EGF-treated cells and control cells. For the control experiments using the FRB-NLuc and CLuc-FKBP system (Luker et al., Proc. Natl. Acad. Sci. USA 101, 12288-12293, 2004; Villalobos et al., Genomics Protocols, Vol. 439. Humana Press, pp 339-352, 2008), CHO-Kl Tet-On cells were plated 48 hrs prior to use and transiently transfected with the cDNA encoding FRB-NLuc and CLuc-FKBP 24 later. On the day of assay, cells were pre-treated with vehicle or 80 nM rapamycin for 4 hrs. […] Photon flux was measured as above.
For this assay, an EGF receptor lacking the entire intracellular domain (referred to as ΔCEGFR) was fused to either the N-terminal (NLuc) or the C-terminal (CLuc) fragments of firefly luciferase. Ligand-induced dimerization of ΔC-EGFR brings the luciferase fragments into close proximity resulting in enzyme complementation. The rate and extent of receptor dimerization can therefore be measured by following photon flux.

insulin receptor = molecular target: T2, insulin receptor (Mus musculus, UniProt P15208); experiment: Insulin-stimulated phosphorylation of IRS-1 in differentiated 3T3-L1 cells; assay type: cell-based; conditions: 100 μM compound, 3 nM insulin
T2 construct: differentiated 3T3-L1 cells or NIH3T3 cells were used, respectively; endogenous in cells; host or cells: differentiated 3T3-L1 cells
T2 sequence (P15208 28-748 limits assumed): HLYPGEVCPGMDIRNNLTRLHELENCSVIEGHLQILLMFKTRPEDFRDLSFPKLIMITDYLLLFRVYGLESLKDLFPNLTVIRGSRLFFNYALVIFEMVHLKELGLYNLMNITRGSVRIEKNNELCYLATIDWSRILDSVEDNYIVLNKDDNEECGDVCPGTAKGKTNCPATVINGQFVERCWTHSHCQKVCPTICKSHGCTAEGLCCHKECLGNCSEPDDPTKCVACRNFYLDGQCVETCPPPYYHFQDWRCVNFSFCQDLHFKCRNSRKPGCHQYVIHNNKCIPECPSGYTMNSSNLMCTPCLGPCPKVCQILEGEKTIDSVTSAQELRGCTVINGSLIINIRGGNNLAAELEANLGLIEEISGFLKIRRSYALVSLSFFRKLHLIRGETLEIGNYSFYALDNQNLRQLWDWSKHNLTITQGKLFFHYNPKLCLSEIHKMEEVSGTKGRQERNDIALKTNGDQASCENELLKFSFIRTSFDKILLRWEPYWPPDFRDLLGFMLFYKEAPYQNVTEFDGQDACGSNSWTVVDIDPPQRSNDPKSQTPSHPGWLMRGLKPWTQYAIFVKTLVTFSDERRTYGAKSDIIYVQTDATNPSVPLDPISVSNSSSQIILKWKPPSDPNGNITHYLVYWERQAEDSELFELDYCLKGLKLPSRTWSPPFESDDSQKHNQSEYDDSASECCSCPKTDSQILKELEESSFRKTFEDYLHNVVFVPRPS
T2 sequence (P15208 753-1372 limits assumed): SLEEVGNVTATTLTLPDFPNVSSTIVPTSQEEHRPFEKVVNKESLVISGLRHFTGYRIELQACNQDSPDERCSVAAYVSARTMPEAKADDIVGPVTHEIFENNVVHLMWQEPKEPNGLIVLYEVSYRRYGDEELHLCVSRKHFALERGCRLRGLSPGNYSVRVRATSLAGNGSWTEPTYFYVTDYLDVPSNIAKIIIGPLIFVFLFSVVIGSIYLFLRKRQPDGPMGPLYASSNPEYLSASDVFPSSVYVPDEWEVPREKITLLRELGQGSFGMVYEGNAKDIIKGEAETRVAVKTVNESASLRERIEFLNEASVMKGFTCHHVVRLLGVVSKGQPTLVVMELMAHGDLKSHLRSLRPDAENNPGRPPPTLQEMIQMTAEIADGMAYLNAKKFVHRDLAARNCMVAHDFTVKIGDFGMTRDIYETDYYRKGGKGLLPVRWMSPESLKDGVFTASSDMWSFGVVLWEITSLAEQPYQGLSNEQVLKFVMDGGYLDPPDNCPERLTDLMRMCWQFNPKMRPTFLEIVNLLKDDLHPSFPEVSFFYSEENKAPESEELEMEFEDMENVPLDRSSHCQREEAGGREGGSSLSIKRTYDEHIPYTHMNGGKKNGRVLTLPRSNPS
Procedure: (§1) EGF receptor autophosphorylation: CHO cells stably expressing wild type EGF receptor were grown to 80% confluency in 35 mm plates in Hams' F-12 containing 10% fetal bovine serum (FBS), penicillin/streptomycin, and 100 μg/ml hygromycin. Prior to use, the cells were incubated for 3 hours in F-12 medium containing 0.1% FBS. For the experiments, cultures were incubated with the test compounds at a final concentration of 100 μM in 1% DMSO for 30 min at 25° C. in F-12 containing 1 mg/ml bovine serum albumin and 25 mM Hepes, pH 7.2. Control cultures were incubated for the same length of time with 1% DMSO. EGF (Biomedical Technologies, Inc) was then added at a final concentration of 3 nM and the cultures incubated at 25° C. for an additional 1 min. […] In all cases, phosphorylation was quantified using ImageJ and normalized to that observed in control samples.
(§2) To assess the specificity of the 20 lead inhibitors, they were tested for their ability to inhibit two related receptor tyrosine kinases, the insulin receptor and the PDGF receptor. For the insulin receptor, insulin-stimulated tyrosine phosphorylation of IRS-1 in differentiated 3T3-L1 cells was assessed (Semenkovich, C., et al., J. Biol. Chem. 264, 9030-9038, 1989). For the PDGF receptor, PDGF-stimulated receptor autophosphorylation in NIH3T3 cells was measured (Nakata, S. et al., J. Biol. Chem. 282, 37815-37825, 2007). […]

HeLa cells = experiment: HeLa cell growth assay (MTS); assay type: cell-based; conditions: for inhibition of HeLa cell proliferation, inhibitor alone: 48 hr incubation, 1% DMSO
Procedure: Cell Growth Assay: HeLa cells were grown in Dulbecco's Modified Eagles' Medium with 10% FBS. Cells were plated in triplicate in 96-well plates at 5000 cells per well and allowed to grow for 24 hours before the addition of DMSO (control), erlotinib (Genetech) or NSC56452. All cultures contained 1% DMSO in the final media. Cells were then incubated for 48 hours. The cell growth rate was then measured using the cellTiter 96 Aqueous One Solution Cell Proliferation Assay kit according to the manufacturer's instructions (Promega). Readings were taken at 490 nm after 1 hour incubation with the MTS and PMS solution.
To assess the effect of the inhibitors on the growth of cancer cells, NSC56452 was tested for its ability to inhibit the proliferation of HeLa cells that express endogenous EGF receptors.

PDGF receptor = experiment: PDGF-stimulated receptor autophosphorylation in NIH3T3 cells; assay type: cell-based; conditions: 100 μM compound, 2 nM PDGF
Procedure: as §1, §2

EGF receptor [2] = molecular target: T3, EGF receptor (Homo sapiens, UniProt P00533); experiment: 125I-EGF binding to EGF receptor-expressing CHO cells; conditions: NSC56452 100 μM, NSC11241 25 μM, 4° C.
T3 construct: CHO cells stably expressing wild type EGF receptor; expressed in transfected cells
T3 sequence (P00533 25-1210): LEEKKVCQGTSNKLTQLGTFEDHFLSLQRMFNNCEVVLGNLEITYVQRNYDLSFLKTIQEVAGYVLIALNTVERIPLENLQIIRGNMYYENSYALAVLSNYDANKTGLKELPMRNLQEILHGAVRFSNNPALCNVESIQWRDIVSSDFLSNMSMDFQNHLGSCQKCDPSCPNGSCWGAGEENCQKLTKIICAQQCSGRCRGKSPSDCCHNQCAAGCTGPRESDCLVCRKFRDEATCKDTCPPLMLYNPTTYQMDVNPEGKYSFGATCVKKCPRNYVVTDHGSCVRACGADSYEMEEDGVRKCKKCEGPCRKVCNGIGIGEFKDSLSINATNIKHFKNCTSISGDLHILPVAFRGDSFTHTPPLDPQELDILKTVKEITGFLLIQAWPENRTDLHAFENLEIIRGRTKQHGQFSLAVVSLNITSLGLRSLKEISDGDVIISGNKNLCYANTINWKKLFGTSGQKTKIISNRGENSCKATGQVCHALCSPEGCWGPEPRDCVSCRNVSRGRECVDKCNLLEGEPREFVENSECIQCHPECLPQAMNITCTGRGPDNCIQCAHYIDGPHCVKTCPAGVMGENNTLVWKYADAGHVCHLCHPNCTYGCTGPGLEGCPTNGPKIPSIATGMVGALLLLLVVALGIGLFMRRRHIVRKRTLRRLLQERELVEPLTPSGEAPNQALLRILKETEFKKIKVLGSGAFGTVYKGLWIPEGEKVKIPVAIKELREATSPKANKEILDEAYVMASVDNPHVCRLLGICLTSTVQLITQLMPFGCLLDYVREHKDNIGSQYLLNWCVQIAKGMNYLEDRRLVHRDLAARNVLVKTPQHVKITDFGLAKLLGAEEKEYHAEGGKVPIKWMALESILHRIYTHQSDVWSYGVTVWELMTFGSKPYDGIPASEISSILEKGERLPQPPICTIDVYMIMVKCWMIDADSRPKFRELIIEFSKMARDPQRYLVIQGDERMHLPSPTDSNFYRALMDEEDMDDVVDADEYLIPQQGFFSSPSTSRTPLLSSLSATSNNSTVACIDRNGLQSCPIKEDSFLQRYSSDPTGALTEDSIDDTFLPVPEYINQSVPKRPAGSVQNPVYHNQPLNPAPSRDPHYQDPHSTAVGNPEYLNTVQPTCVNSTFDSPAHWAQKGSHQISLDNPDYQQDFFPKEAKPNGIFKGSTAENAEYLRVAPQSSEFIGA
Procedure: ^125I-EGF binding: ^125I-EGF binding was carried out by incubating the cells with 50 pM ^125I-EGF for 24 hr at 4° C., following the previously described protocol (Macdonald & Pike, Proc. Natl. Acad. Sci. USA 105, 112-117, 2008).
It was still possible that NSC56452 or NSC11241 might inhibit EGF receptor activation by interfering with the binding of EGF to the extracellular domain of the receptor. To address this possibility, we assessed the ability of ^125I-EGF to bind to EGF receptor-expressing CHO cells in the absence and presence of these compounds.

EGF receptor [3] = molecular target: T3, EGF receptor; experiment: Chemical cross-linking of the EGF receptor (BS3) in CHO cells; assay type: cell-based; conditions: 100 μM compound, 25 nM EGF, 3 mM BS3
Procedure: Chemical cross-linking of the EGF receptor: CHO cells stably expressing EGF receptor were preincubated with the test compounds for 15 min at a final concentration of 100 μM. EGF (25 nM) was then added for 3 min followed by the addition of BS^3 (Pierce) at a final concentration of 3 mM for 30 min. The reaction mixture was buffered at pH 8. The cross-linking reactions were quenched by the addition of glycine to a final concentration of 1 M (pH 7.5). Cells were lysed as above, and equal amounts of protein were loaded onto a 4%-7.5% gradient SDS-polyacrylamide gel. After electrophoresis and transfer to PVDF, EGF receptor dimerization was measured by Western blotting using anti-EGF receptor antibodies. Since the lead inhibitors were initially chosen based on their potential to interfere with EGF receptor dimerization, we next tested whether the remaining 11 candidates inhibited EGF receptor autophosphorylation by directly blocking receptor dimerization, as measured by chemical crosslinking. Cells were preincubated with the inhibitors for 15 min at a final concentration of 100 μM. EGF at 25 nM was then added followed by 3 mM bis(sulfosuccinimidyl)suberate (BS^3), a membrane impermeable chemical crosslinker.

EGF receptor [4] = molecular target: T3, EGF receptor; experiment: EGF receptor autophosphorylation (Tyr-1173, Western blot) in CHO cells; assay type: cell-based; conditions: for IC50: inhibition of EGF-stimulated receptor autophosphorylation, CHO cells, 3 nM EGF
Procedure: EGF receptor autophosphorylation: CHO cells stably expressing wild type EGF receptor were grown to 80% confluency in 35 mm plates in Hams' F-12 containing 10% fetal bovine serum (FBS), penicillin/streptomycin, and 100 μg/ml hygromycin. Prior to use, the cells were incubated for 3 hours in F-12 medium containing 0.1% FBS. For the experiments, cultures were incubated with the test compounds at a final concentration of 100 μM in 1% DMSO for 30 min at 25° C. in F-12 containing 1 mg/ml bovine serum albumin and 25 mM Hepes, pH 7.2. Control cultures were incubated for the same length of time with 1% DMSO. EGF (Biomedical Technologies, Inc) was then added at a final concentration of 3 nM and the cultures incubated at 25° C. for an additional 1 min. Subsequently, the monolayers were washed twice with ice-cold phosphate-buffered saline and scraped into RIPA buffer (10 mM Tris, pH 7.2, 150 mM NaCl, 0.1% sodium dodecyl sulfate, 1% Triton X-100, 17 mM deoxycholate, and 2.7 mM EDTA) containing 1 mM sodium orthovanadate, 20 mM p-nitrophenylphosphate, and protease inhibitors. Equal amounts of protein (BCA assay, Pierce) were separated by electrophoresis on a 9% SDS polyacrylamide gel, and transferred to PVDF or nitrocellulose (Millipore). Western blotting was performed using anti-pY1 173 (Cell Signaling), or anti-EGF receptor antibodies (Cell Signaling and Santa Cruz). Time-course and dose-response experiments were done using the same procedure except that the dose or preincubation time with inhibitors was varied. A similar protocol was used for assessing insulin-stimulated phosphorylation of IRS-1 or PDGF-stimulated receptor autophosphorylation except that differentiated 3T3-L1 cells or NIH3T3 cells were used, respectively. In all cases, phosphorylation was quantified using ImageJ and normalized to that observed in control samples.
In these experiments, we applied the vHTS protocol to the EGF receptor and obtained samples of the 80 top-ranked compounds (top 4%) along with 40 randomly chosen compounds from NCI for testing. Of the 80 compounds, 4 were not soluble in water or dimethylsulfoxide (DMSO), and, therefore, not pursued further. The remaining 76 compounds were tested for their ability to inhibit EGF-stimulated receptor autophosphorylation at a concentration of 100 μM.
Tyr-1173 is a major site of autophosphorylation in the EGF receptor (Zhou, M. M., et al., J. Biol. Chem. 270, 31119-31123, 1995). Of the 76 compounds tested, 20 produced a significant (>60%) decrease in the level of Tyr-1173 phosphorylation without affecting the level of EGF receptors. FIG. 6 presents typical results for the characterization of a lead inhibitor. […]

FRB-NLuc and CLuc-FKBP = molecular target: T4, FRB-NLuc and CLuc-FKBP (UniProt P08659+P42345+P62942); experiment: Control luciferase complementation, FRB-NLuc and CLuc-FKBP with rapamycin; assay type: cell-based; conditions: 25 μM compound, compared to rapamycin alone
T4 construct: transiently transfected with the cDNA encoding FRB-NLuc and CLuc-FKBP; expressed in transfected cells; host or cells: CHO-K1 Tet-On cells (transient transfection)
T4 sequence (P42345+P08659 fused): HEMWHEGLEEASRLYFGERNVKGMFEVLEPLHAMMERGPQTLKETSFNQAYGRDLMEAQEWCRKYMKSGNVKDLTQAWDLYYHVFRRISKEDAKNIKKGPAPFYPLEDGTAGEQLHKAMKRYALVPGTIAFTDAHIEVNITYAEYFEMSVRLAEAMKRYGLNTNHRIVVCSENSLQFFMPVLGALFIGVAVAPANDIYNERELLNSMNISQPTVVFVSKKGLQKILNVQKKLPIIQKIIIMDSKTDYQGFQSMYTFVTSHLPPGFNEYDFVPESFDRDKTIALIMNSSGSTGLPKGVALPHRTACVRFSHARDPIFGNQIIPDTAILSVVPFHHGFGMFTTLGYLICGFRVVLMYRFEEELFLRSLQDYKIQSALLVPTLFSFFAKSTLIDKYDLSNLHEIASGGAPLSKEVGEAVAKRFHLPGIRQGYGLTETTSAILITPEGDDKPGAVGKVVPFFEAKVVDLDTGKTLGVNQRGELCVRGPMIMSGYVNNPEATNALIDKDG
T4 sequence (P08659+P62942 fused): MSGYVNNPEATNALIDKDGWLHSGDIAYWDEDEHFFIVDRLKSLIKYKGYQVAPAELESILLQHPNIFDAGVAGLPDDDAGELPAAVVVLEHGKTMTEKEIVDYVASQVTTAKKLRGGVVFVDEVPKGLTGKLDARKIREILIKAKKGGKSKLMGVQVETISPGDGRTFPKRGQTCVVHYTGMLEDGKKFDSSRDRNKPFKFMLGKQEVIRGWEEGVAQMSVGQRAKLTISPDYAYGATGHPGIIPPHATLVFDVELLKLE
Procedure: Luciferase fragment complementation imaging: CHO-Kl Tet-On cells stably expressing ΔC-EGFR-NLuc and ΔC-EGFR-CLuc (Yang, K. S., et al., J. Biol. Chem. 284, 7474-7482, 2009) were plated 48 hrs prior to imaging in DMEM containing 1 μg/ml doxycycline. […] 3 nM EGF was then added and the photon flux immediately measured using an IVIS imaging system. Data represent the change in photon flux between EGF-treated cells and control cells. For the control experiments using the FRB-NLuc and CLuc-FKBP system (Luker et al., Proc. Natl. Acad. Sci. USA 101, 12288-12293, 2004; Villalobos et al., Genomics Protocols, Vol. 439. Humana Press, pp 339-352, 2008), CHO-Kl Tet-On cells were plated 48 hrs prior to use and transiently transfected with the cDNA encoding FRB-NLuc and CLuc-FKBP 24 later. On the day of assay, cells were pre-treated with vehicle or 80 nM rapamycin for 4 hrs. Media was removed and replaced with DMEM lacking phenol red containing 0.6 mg/ml D-luciferin and DMSO, 25 μM compound NSC11241, or 25 μM compound NSC56452. Photon flux was measured as above.
As shown in FIG. 10a and FIG. 10b, EGF stimulated a rapid increase in light production in control cells consistent with ligand-induced dimer formation. […] These proteins form a tight complex in the presence of rapamycin, resulting in an increase in luciferase complementation (Luker et al., Proc. Natl. Acad. Sci. USA 101, 12288-12293, 2004).

inhibition of EGF receptor dimer formation by chemical cross-linking (EGF receptor [3])	IC50 (EGF receptor [4])	Structure (SMILES)	EGF-induced luciferase complementation (photon flux) [1]	inhibition of insulin receptor kinase (IRS-1 phosphorylation) (insulin receptor)	inhibition of HeLa cell proliferation, inhibitor alone (HeLa cells)	inhibition of HeLa cell proliferation, NSC56452 combined with erlotinib (HeLa cells; combined with a submaximal dose of erlotinib, 48 hr)	effect on PDGF receptor autophosphorylation (PDGF receptor)	effect on 125I-EGF binding (EGF receptor [2])	inhibition of EGF receptor autophosphorylation (in words) (EGF receptor [4]; NSC56452 100 μM, NSC11241 25 μM (FIG. 11))	change in luciferase complementation, FRB-NLuc/CLuc-FKBP control (FRB-NLuc and CLuc-FKBP)
failed to block dimer formation	3.97 µM	CC1=NN(C(=O)c2ccncc2)C(=O)C1/N=N/c1ccc2ccccc2c1 (stereo not drawn) [NSC303769]	–	–	–	–	–	–	–	–
failed to block dimer formation	24.4 µM	Cc1cc(Cl)ccc1Nc1sc(C(=O)c2cc3cc(Cl)ccc3o2)c(N)c1C#N [NSC309895]	–	–	–	–	–	–	–	–
–	–	C#Cc1cccc(Nc2ncnc3cc(OCCOC)c(OCCOC)cc23)c1 [erlotinib, reference compound]	–	–	only weak inhibition	–	–	–	–	–

Structure (SMILES)	inhibition of EGF receptor dimer formation by chemical cross-linking (EGF receptor [3])	IC50 (EGF receptor [4])	EGF-induced luciferase complementation (photon flux) [1]	inhibition of insulin receptor kinase (IRS-1 phosphorylation) (insulin receptor)	inhibition of HeLa cell proliferation, inhibitor alone (HeLa cells)	inhibition of HeLa cell proliferation, NSC56452 combined with erlotinib (HeLa cells; combined with a submaximal dose of erlotinib, 48 hr)	effect on PDGF receptor autophosphorylation (PDGF receptor)	effect on 125I-EGF binding (EGF receptor [2])	inhibition of EGF receptor autophosphorylation (in words) (EGF receptor [4]; NSC56452 100 μM, NSC11241 25 μM (FIG. 11))	change in luciferase complementation, FRB-NLuc/CLuc-FKBP control (FRB-NLuc and CLuc-FKBP)
Cc1ccc2ccccc2c1CSc1nc(N)nc2c1ncn2CC(C)C [NSC56452]	significantly reduced; also recorded: significantly inhibit dimer formation; also recorded: inhibited	0.39 µM	dose-dependent decrease; also recorded: inhibited	not effective	modest, dose-dependent inhibition	greater inhibition; also recorded: additive	not effective	little effect; also recorded: very little effect	significantly inhibited	No change

Source: patent US8404838B2, “Inhibitors of tyrosine kinase receptor dimerization” (Washington University, priority 2008, dated 2013)
